Tested on: 4T1-Luc2 cells
Assay: Survival of mice after resection of orthotopic 4T1-Luc2 breast tumors, composition administered at the tumor resection site
Type: in vivo, mouse
Procedure: In some embodiments, an animal model of cancer can be used to identify and/or characterize composition comprising a polymeric biomaterial and a modulator of myeloid-derived suppressive cells. For example, a tumor resection is performed on a tumor-bearing mouse, and a composition described herein, e.g., composition comprising a polymeric biomaterial and a modulator of myeloid-derived suppressive cells is administered to the tumor resection site. The survival of treated subjects is then monitored. In some embodiments, a composition comprising a polymeric biomaterial and a modulator of myeloid-derived suppressive cells is considered and/or determined to be useful in accordance with the present disclosure when it is characterized, in that when tested in vivo as described in the present Example, it extends survival of a treated subject, e.g., by at least 1 week, at least 2 weeks, at least 3 weeks, at least 4 weeks, at least 2 months, at least 3 months, at least 4 months, at least 5 months, at least 6 months, or longer, as compared to that observed in a control reference (e.g., a control in which a composition comprising a polymeric biomaterial and a modulator of myeloid-derived suppressive cells is not administered. For example, in some embodiments, a control reference may be administration of a polymeric biomaterial in the absence of a modulator of myeloid-derived suppressive cell function. In some embodiments, a control reference may be administration of a modulator of myeloid-derived suppressive cell function in solution. Alternatively, in some embodiments, a provided composition comprising a biomaterial preparation and a modulator of myeloid-derived suppressive cells is considered and/or determined to be useful for treatment of cancer (including, e.g., prevention or reduction in the likelihood of tumor relapse or metastasis) in accordance with the present disclosure when such a composition, after administration at a tumor resection site, reduces incidence of tumor recurrence and/or metastasis after the tumor resection (e.g., at least 1 month after tumor resection when the test subject is a mouse subject, or at least 3 months after tumor resection when the test subject is a human subject), for example, by at least 10% or more (comprising, e.g., at least 20%, at least 30%, at least 40%, at least 50%, at least 60%, at least 70%, at least 80%, at least 90%, or more) as compared to that observed in a control reference (e.g., as described above).
In some embodiments, female BALB/cJ mice are inoculated orthotopically with 100,000 breast cancer cells (e.g., 4T1-Luc2 cells). Ten days later, tumors are surgically resected, and either (i) a composition described herein, e.g., a composition comprising a polymeric biomaterial and a modulator of myeloid-derived suppressive cells, (ii) a composition comprising a polymeric biomaterial without a modulator of myeloid-derived suppressive cells, and/or (iii) a negative control composition (e.g., a buffered solution without such a composition) is administered into the resection cavity. Animal survival can be monitored to inspect for induction of antitumor immunity. In some embodiments, to confirm that a composition comprising a polymeric biomaterial and a modulator of myeloid-derived suppressive cells functions mechanistically, for example, by modulating recruitment and/or survival and/or proliferation of myeloid-derived suppressive cells (e.g., neutrophils), animal survival may be monitored following inhibition of recruitment and/or survival and/or proliferation of myeloid-derived suppressive cells (e.g., neutrophils). In some embodiments, to confirm that an administered composition comprising a polymeric biomaterial and a modulator of myeloid-derived suppressive cells functions mechanistically by modulating myeloid-derived suppressive cell effector function, animal survival may be monitored following modulating myeloid-derived suppressive cell effector function (e.g., as described herein). […]

[1] = 10% w/w poloxamer 407 + 3% w/w 187 kDa HA with agent, 1.25 mg/mouse, at tumor resection site (day 10), vs same biomaterial without agent and vs 15% w/w poloxamer 407

CCCCC(=O)N(Cc1ccc(-c2ccccc2-c2nnn[nH]2)cc1)[C@H](C(=O)O)C(C)C [Valsartan]
survival of tumor resection mice (FIG. 7: 11% w/w poloxamer 407 + 1.8% w/w 766 kDa HA with agent, 1 mg/mouse, at tumor resection site, vs same biomaterial without agent): survived over a longer period of time

O=C(c1ccccc1)c1ccc2n1CCC2C(=O)O (stereo not shown) [Ketorolac]
survival of tumor resection mice (FIG. 2A: 10% w/w poloxamer 407 + 3% w/w 187 kDa HA with agent, 6 mg/mouse, at tumor resection site, vs same biomaterial without agent and vs 15% w/w poloxamer 407): survived over a longer period of time
survival of tumor resection mice (FIG. 2B: 10% w/w poloxamer 407 + 3% w/w 187 kDa HA with agent, 9 mg/mouse, at tumor resection site, vs same biomaterial without agent and vs 15% w/w poloxamer 407): survived over a longer period of time
survival of tumor resection mice (FIG. 3: 9% w/w poloxamer 407 + 2.2% w/w 766 kDa HA with agent, 1.2 mg/mouse, at tumor resection site, vs same biomaterial without agent): survived over a longer period of time

Cc1c(C#N)cccc1-c1cc(-c2cn(Cc3cccc(C(C)(C)O)n3)nn2)nc(N)n1 [AB928, etrumadenant]
survival of tumor resection mice [1]: survived over a longer period of time

c1cc(CN2CCCNCCNCCCNCC2)ccc1CN1CCCNCCNCCCNCC1 [Plerixafor]
survival of tumor resection mice [1]: survived over a longer period of time

CC/C=C\C[C@H](O)[C@H](O)/C=C/C=C/C=C\C=C\[C@@H](O)C/C=C\CCC(=O)O [Resolvin D2]
survival of tumor resection mice (FIG. 4: 10% w/w poloxamer 407 + 3% w/w 187 kDa HA with agent, 2.5 μg/mouse, at tumor resection site, vs same biomaterial without agent and vs 15% w/w poloxamer 407): survived over a longer period of time
